These are literature values, as cited in patent publication US20140271866A1, “TRANSDERMAL DRUG DELIVERY SYSTEM CONTAINING RIVASTIGMINE” (priority 2013, published 2014).

The conditions of the series: in vivo.

`CCN(C)C(=O)Oc1cccc([C@H](C)N(C)C)c1` [Rivastigmine, rivastigmine]: the half-life result was “about 1.5 hours”.
